Measured values: ChEMBL document CHEMBL1136552, “Synthesis and preliminary cytotoxicity of nitrogen mustard derivatives of distamycin A” (Bioorg Med Chem Lett, 2003)

system: K562; assay: Cytotoxicity against K562 leukemia cells in vitro, expressed as the minimal concentration necessary to inhibit incorporation of [3H]thymidine by 50%; assay type: functional, cell-based; conditions: Homo sapiens, K562, 48 h

First: CCCONc1cc(C(=O)Nc2cc(C(=O)Nc3cc(C(=O)Nc4ccc(N(CCCl)CCCl)cc4)n(C)c3)n(C)c2)n(C)c1
Second: CCCONc1cc(C(=O)Nc2cc(C(=O)Nc3ccc(N(CCCl)CCCl)cc3)n(C)c2)n(C)c1
The IC50 of the first is 8.3-fold lower: 30 nM for the first, 250 nM for the second.

First: CCCC(=O)Nc1cc(/C=C/C(=O)Nc2cc(C(=O)Nc3ccc(N(CCCl)CCCl)cc3)n(C)c2)n(C)c1
Second: CCCC(=O)Nc1cc(/C=C/C(=O)Nc2ccc(N(CCCl)CCCl)cc2)n(C)c1
The IC50 of the first is 5.7-fold lower: 210 nM for the first, 1200 nM for the second.

First: CCCONc1cc(C(=O)Nc2ccc(N(CCCl)CCCl)cc2)n(C)c1
Second: O=C(O)CCCc1ccc(N(CCCl)CCCl)cc1 [CHLORAMBUCIL]
The IC50 of the first is 37-fold lower: 950 nM for the first, 35000 nM for the second.
